Laboratory results as given in patent publication US10400263B2, “Tripeptide rhodamine compound” (Kingston Uninversity Higher Education Corporation, priority 2012, dated 2019).

Legend:
MRSA = test: LGX staphylocoagulase fluorescence assay, MRSA isolates; format: cell-based, Staphylococcus aureus
Experimental: (§1) Each sample was rinsed liberally in sterile 1×PBS and varying concentrations of bacterial suspension from 10^0-10^6 were generated by serial dilution in 1×PBS. Additionally, bacterial cultures were furthermore maintained on nutrient agar to assess the coagulase status of the isolate.
(§2) To determine the effects of varying bacterial concentrations with respect to bacterial strains and concentrations of the compounds according to the present invention on staphylocoagulase activity, 100 and 50 μM solutions containing LGX were prepared in 1×PBS with the addition of 0.05 M Tris Buffer and 0.1 M NaCl to maintain a pH of 8.5 using LGX dissolved in MeOH so that final concentration of methanol was no more than 2.5%. Furthermore, an appropriate concentration (100 μM and 50 μM, respectively) of human prothrombin was added to the solution.
(§3) The plate reader used was a Fluostar Optima, and the plates used were Nunclon Surface 96 well plates. Positive controls for each experiment was a strain of MRSA, and the negative control for each experiment was a strain of E. coli, both of which were picked at random to ensure there was no bias within the data. A 1:1 ratio of the LGX solution with PBS was also assayed as “LGX alone” sample, which has been designated as a black line on the graphs below. n=3 cultures were assayed in each case.
(§4) Clinical isolates of Methicillin Resistant Staphylococcus Aureus (MRSA), Methicillin Sensitive Staphylococcus Aureus (MSSA), Staphylococcus Epidermidis, Eschericia coli and other staphyloccal species were cultured on nutrient agar prior to being grown overnight in nutrient broth under shaking conditions at 37° C. Each sample was rinsed liberally in sterile 1×PBS and varying concentrations of bacterial suspension from […] were generated by serial dilution in 1×PBS. Additionally, bacterial cultures were furthermore maintained on nutrient agar to assess the coagulase status of the isolate.
(§5) To determine the effects of varying bacterial concentrations with respect to bacterial strains and LGX concentrations on staphylocoagulase activity, 100 and 50 μM solutions of LGX were prepared in 1×PBS with the addition of 0.05 M Tris Buffer and 0.1 M NaCl to maintain a pH of 8.5 using LGX dissolved in MeOH so that final concentration of methanol was no more than 2.5%. Furthermore, an appropriate concentration (100 μM and 50 μM, respectively) of human prothrombin was added to the solution. 90 μl of LGX solution in addition to each respective bacterial isolate at varying concentrations was added to a microtitre plate. […] The plate reader used was a Fluostar Optima, and the plates used were Nunclon Surface 96 well plates.

E. coli = test: LGX staphylocoagulase fluorescence assay, E. coli strains; format: cell-based; details: for fluorescence over the 6 hour time period: high and low concentrations
Experimental: as §1, §2, §3, §4, §5

S. epidermidis = test: LGX staphylocoagulase fluorescence assay, S. epidermidis; format: cell-based, Staphylococcus Epidermidis; details: for fluorescence over the 6 hour time period: S. epidermidis, high and low concentrations
Experimental: as §1, §2
The plate reader used was a Fluostar Optima, and the plates used were Nunclon Surface 96 well plates. Positive controls for each experiment was a strain of MRSA, and the negative control for each experiment was a strain of E. coli, both of which were picked at random to ensure there was no bias within the data. A 1:1 ratio of the LGX solution with PBS was also assayed as “LGX alone” sample, which has been designated as a black line on the graphs below. n=3 cultures were assayed in each case. […]
(§6) To determine the effects of varying bacterial concentrations with respect to bacterial strains and LGX concentrations on staphylocoagulase activity, 100 and 50 μM solutions of LGX were prepared in 1×PBS with the addition of 0.05 M Tris Buffer and 0.1 M NaCl to maintain a pH of 8.5 using LGX dissolved in MeOH so that final concentration of methanol was no more than 2.5%. […] The plate reader used was a Fluostar Optima, and the plates used were Nunclon Surface 96 well plates.

[1] = tested on: coagulase negative staphylococci; test: LGX staphylocoagulase fluorescence assay, coagulase negative staphylococci panel; format: cell-based
Experimental: as §1, §2, §3

M. luteus = test: LGX system, M. luteus; format: cell-based
Experimental: as §1
To determine the effects of varying bacterial concentrations with respect to bacterial strains and concentrations of the compounds according to the present invention on staphylocoagulase activity, 100 and 50 μM solutions containing LGX were prepared in 1×PBS with the addition of 0.05 M Tris Buffer and 0.1 M NaCl to maintain a pH of 8.5 using LGX dissolved in MeOH so that final concentration of methanol was no more than 2.5%. […]
The plate reader used was a Fluostar Optima, and the plates used were Nunclon Surface 96 well plates. […]
as §6

S. aureus = test: LGX test on volunteers' nasal swabs with prothrombin or prethrombin; format: cell-based, Staphylococcus aureus; details: for samples tested positive for S. aureus: threshold 20,000 RFU
Experimental: A population of 113 volunteers were administered a “set” of swabs, comprising two swabs that were pre-moistened with sterile H2O, and one swab that was dry. Each volunteer swabbed the internal periphery of each nostril with the two moistened swabs. Each volunteer then subsequently swabbed the internal periphery of each nostril with the dry swab. The swabs were then placed into amies transport medium to maintain bacterial cell viability. Each sample was anonymous and the study was randomised.
A 100 μL solution of 100 μM LGX with either 1×prothrombin or 1×prethrombin (buffered to pH 8.5 with Tris base and NaCl), was pipetted into sterile 1.5 mL eppendorf tubes. Each moistened swab was placed into the eppendorf tube, and cut to a length to facilitate closure of the tube, with a pair of sterilised scissors. Each tube was subjected to vigorous agitation and the swab tips were removed with sterile forceps. The remaining solution was subsequently pipetted into a microtitre plate (Nunclon 96 well plates). The relative fluorescence of the sample was then recorded every fifteen minutes over a six hour time period (λex.=488 nm and λem=525 nm).
In tandem with this, the remaining swabs (in amies transport medium) were transferred onto pre warmed mannitol salt agar (chromogenic agar for the determination of S. aureus) plates and incubated for up to 48 hours at 37° C. The colour change and colony appearance of the bacteria was noted. […] Following this, 20 separate, discrete colonies were sub-cultured onto nutrient agar and also onto Baird Parker Agar (agar for the determination of S. aureus and S. epidermidis). After an overnight culture at 37° C., colony morphology and appearance was observed (S. aureus colonies are large with a pale “halo” surrounding the colonies, S. epidermidis colonies are small and black).
Additionally, isolates from the nasal swabs cultured on nutrient agar were tested for coagulase activity using a staphylase test kit (oxoid). Loopfuls of bacteria were assayed based on coagulase mediated clumping of fibrinogen-sensitised ovine blood cells.
A final test to determine the identification of the bacteria within each sample, a gram stain was performed. This is based on the presence of peptidoglycan in gram positive cells and their ability to retain crystal violet. S. aureus is a gram positive bacterium. Briefly, a drop of sterile dH2O was placed on a microscope slide and a small amount of culture was applied to this and allowed to air dry. The slide was passed though a flame to fix the bacteria. Crystal Violet was applied to each slide, followed by washing with dH2O. Iodine was then added to the slides, followed by washing with dH2O and subsequent decolourisation with ethanol and another wash with dH2O. Each slide was counterstained with carbol fushchin (for gram negative), rinsed again and allowed to dry.
Each swab sample was examined for the presence of S. aureus based on the above identification techniques, and termed “positive” or “negative”. The results were compared to the finding of the assay of the current invention (LGX test), with either prethrombin or prothrombin, and plotted on a bar chart as a function of relative fluorescence units.

## CC(C)[C@H](NC(=O)OC(C)(C)C)C(=O)N1CCC[C@H]1C(=O)N[C@@H](CCCNC(=N)N)C(=O)Nc1ccc2c(c1)Oc1cc(NC(=O)[C@H](CCCNC(=N)N)NC(=O)[C@@H]3CCCN3C(=O)[C@@H](NC(=O)OC(C)(C)C)C(C)C)ccc1C21OC(=O)c2ccccc21 (stereo partly drawn) [LGX, Rho-(Arg-Pro-Val-NHBoc)2]
MRSA; 50 μM LGX, MRSA 10^2
  samples failed to reach maximum fluorescence within the 6 hour time frame: 60%
  samples reaching the maximum reading of 65,000 RFU within 4 hours: 40%
MRSA; 50 μM LGX, MRSA 10^3
  samples failed to reach maximum fluorescence within the 6 hour time frame: 40%
  samples reaching the maximum reading of 65,000 RFU within 4 hours: 60%
MRSA; 50 μM LGX, MRSA 10^5
  samples failed to reach maximum fluorescence within 5 hours: 20%
  samples reaching the maximum reading of 65,000 RFU within 2 hours: 60%
MRSA; 50 μM LGX, MRSA 10^6
  samples failed to reach maximum: 10%
  samples reaching the maximum reading of 65,000 RFU within 2 hours: 90%
  time by which maximum fluorescence level was reached, all samples: ≤ 2 h
MRSA; 50 μM LGX, MRSA positive control at 10^6, 10^5 and 10^3
  time for fluorescence readings to reach a maximum: almost immediately or within an hour
MRSA; 50 μM LGX, MRSA positive control, lower concentrations
  time for fluorescence readings to reach a maximum: 6 h
MRSA; 100 μM LGX, MRSA 10^2
  samples achieving a fluorescence reading of 20,000 within 1 hour: 95%
  samples in which fluorescence reached its upper limits within 4 hours: 40%
MRSA; 100 μM LGX, MRSA 10^2, FIG. 14
  time for fluorescence to reach a maximum: approximately 3 hours
MRSA; 100 μM LGX, MRSA 10^3
  samples in which fluorescence reached its upper limits within 3 hours: 40%
MRSA; 100 μM LGX, MRSA 10^4
  MRSA reaching maximum fluorescence over the 6 hours time period: 90%
  samples in which fluorescence reached its upper limits within 2 hours: 50%
MRSA; 100 μM LGX, MRSA lower concentrations of 10^3 and 10^4 (so in the source)
  isolates failed to reach maximum fluorescence over 6 hours: 40%
MRSA; 100 μM LGX, MRSA positive control, all concentrations (10^4, 10^3 and 10^3 as printed)
  time for fluorescence to reach a maximum: ≤ 3 h
MRSA; MRSA, detection of coagulase positive samples
  LGX SYSTEM: +
E. coli; 50 μM LGX, E. coli strains 10^6, 10^5, 10^3 and 10^2, FIG. 6
  fluorescence over the duration of the experiment: remain consistently low
E. coli; 50 μM LGX, E. coli, FIG. 13
  fluorescence over the 6 hour time period: no increase in fluorescence was observed
E. coli; 50 μM LGX, all concentrations of bacteria, E. coli
  samples above 20,000 fluorescence units after 1 hour: 0%
E. coli; 50 μM or 100 μM LGX, E. coli
  fluorescence response within 1 hour: ≤ 5000 fluorescence units
E. coli; 100 μM LGX, E. coli strains, FIG. 7
  fluorescence across the 6 hour time period: remained consistently low
E. coli; 100 μM LGX, E. coli, FIG. 14
  fluorescence over the 6 hour time period: no increase in fluorescence was observed
E. coli; E. COLI
  LGX SYSTEM: −
S. epidermidis; 50 μM LGX, FIG. 13
  fluorescence over the 6 hour time period: no increase in fluorescence was observed
S. epidermidis; 100 μM LGX, FIG. 14
  fluorescence over the 6 hour time period: no increase in fluorescence was observed
S. epidermidis; S. EPIDERMIDIS
  LGX SYSTEM: −
[1]; 50 μM LGX, all concentrations of bacteria, coagulase negative staphylocci
  samples above 20,000 fluorescence units after 1 hour: 0%
[1]; 50 μM LGX, coagulase negative strains 10^6, 10^5, 10^3 and 10^2, FIG. 8
  fluorescence over the duration of the experiment: remain consistently low
[1]; 50 μM or 100 μM LGX, coagulase negative staphylococci
  fluorescence response within 1 hour: ≤ 5000 fluorescence units
[1]; 100 μM LGX, coagulase negative strains, FIG. 9
  fluorescence across the 6 hour time period: remained consistently low
M. luteus
  LGX SYSTEM: −
  coagulase result with LGX system: negative
S. aureus; 100 μM LGX with 1×prethrombin
  time in which S. aureus was efficiently detected: 15 min
S. aureus; 100 μM LGX with 1×prethrombin, 15 minutes
  samples tested positive for S. aureus: approximately 49 samples
S. aureus; 100 μM LGX with 1×prethrombin, 60 minutes
  samples tested positive for S. aureus: approximately 49 samples
S. aureus; 100 μM LGX with 1×prothrombin
  time in which S. aureus was efficiently detected: 15 min
S. aureus; 100 μM LGX with 1×prothrombin, 15 minutes, 113 volunteers
  samples tested positive for S. aureus: approximately 29 samples
S. aureus; 100 μM LGX with 1×prothrombin, 60 minutes
  samples tested positive for S. aureus: approximately 34 samples
